The data set is described as follows: in vitro. The note with it: human, hela cells, % viability.
For orientation: viability means a read-out of living cells in per cent, often relative to untreated cells. Regarding `COc1cccc2cc(C(=O)N3CCN(CCO)CC3)c(=O)oc12` [CBK293932], the viability at 28.5 h, 10 µM is 89.5%.
Then `COc1ccc(C2C=C(c3ccc(OC)c(OC)c3)Nc3ncnn32)c(OC)c1` (stereo not shown) [CBK293934], with 93.3%.
`COc1ccc(OCc2nc3ccccc3n2C(C)c2ccccc2)cc1` (stereo not shown) [CBK293941]: the viability at 28.5 h, 10 µM worked out at 116%.
For `Cc1ccc(C(NC(=O)CC(C)C)c2ccc3cccnc3c2O)cc1` (stereo not shown) [CBK293943], the viability at 28.5 h, 10 µM amounted to 89.3%.
For the molecule `CCCC(=O)NC(c1ccc(OC)cc1)c1cc(Cl)c2cccnc2c1O` (stereo not shown) [CBK293944], the viability at 28.5 h, 10 µM was 87.4%.
Consider `COc1ccc(-n2c3c(cc(C(=O)Nc4ccccc4Br)c2=O)C(=O)CCC3)cc1` [CBK293945], for which the viability at 28.5 h, 10 µM turned out to be 95.7%.
Regarding `CC(C)CNc1nc2c(c(=O)n(Cc3ccccc3)c(=O)n2C)n1Cc1ccccc1` [CBK293946], the viability at 28.5 h, 10 µM was 81.7%.
As for `Cc1ccc(S(=O)(=O)N2CCN(C(c3ccccc3)c3ccccc3)CC2)cc1[N+](=O)[O-]` [CBK293949], the viability at 28.5 h, 10 µM came to 103%.
`O=S(=O)(/N=C(/c1ccc(Cl)cc1)N1CCOCC1)c1ccccc1` [CBK293950]: the viability at 28.5 h, 10 µM worked out at 93.5%.
Consider `CN(C)CCCNC(=O)c1cc2c(n(-c3ccc(Cl)c(Cl)c3)c1=O)CC(C)(C)CC2=O` [CBK293952], for which the viability at 28.5 h, 10 µM was found to be 87.4%.
Turning to `Cc1ccc(-c2cc(C(F)(F)F)n3ncc(C(=O)NCc4c(C)nn(C)c4C)c3n2)cc1` [CBK293956], the viability at 28.5 h, 10 µM turned out to be 106%.
The same measure for `CC(C)Oc1ccc(-c2cc(C(=O)NCc3ccncc3)c3ccccc3n2)cc1` [CBK293957]: 106%; for `Cc1cc(OC(C)C(=O)N(Cc2cccs2)C2CCS(=O)(=O)C2)cc(C)c1Cl` (stereo not shown) [CBK293962]: 84.3%.
Regarding `Cc1ccc2c(c1)N(CCO)/C(=C/c1sc3ccccc3[n+]1CCCS(=O)(=O)[O-])S2` [CBK293965], the viability at 28.5 h, 10 µM was determined as 93.5%.
Then `COc1cccc(C2CC(c3cccc(Cl)c3)n3nc(N)nc3N2)c1` (stereo not shown) [CBK293966], with 85.1%.
`COc1ccc(-n2nnnc2SCC(=O)c2ccc(O)c(O)c2)cc1` [CBK293969]: the viability at 28.5 h, 10 µM worked out at 90.3%.
`Cc1ccc(Cn2nnc3c(O)nc(C4CCN(C(=O)CC(C)(C)C)CC4)nc32)cc1` [CBK293970]: the viability at 28.5 h, 10 µM came out at 91.2%.
As to `CCSC1=C(C#N)C(=O)NC(c2ccccc2O)S1` (stereo not shown) [CBK293971], the viability at 28.5 h, 10 µM came to 109%.
On to `N#CC1=C(SCc2ccccc2)SC(c2ccc(O)c(O)c2)NC1=O` (stereo not shown) [CBK293972], for which the viability at 28.5 h, 10 µM worked out at 105%.
For the molecule `Cc1coc(C)c1C(=O)CC1(O)C(=O)N(CCc2ccccc2)c2ccccc21` (stereo not shown) [CBK293975], the viability at 28.5 h, 10 µM worked out at 84.8%.
In the case of `O=c1[nH]c2ccc(Oc3ccc4[nH]c(=O)c(=O)[nH]c4c3)cc2[nH]c1=O` [CBK293978], the viability at 28.5 h, 10 µM worked out at 101%.
Regarding `Cc1nnc(SCC2=NN(c3nc4ccccc4[nH]3)C(=O)C2)s1` [CBK293979], the viability at 28.5 h, 10 µM was 108%.
Consider `O=C(NCc1ccc2c(c1)OCO2)c1ccc(Oc2ccccc2)cc1` [CBK293982], for which the viability at 28.5 h, 10 µM stood at 91.4%.
Take `Cc1n[n+]2c(C(=O)Nc3ccc(S(=O)(=O)Nc4nccs4)cc3)c(C)[n-]n2c1[N+](=O)[O-]` [CBK293983]: the viability at 28.5 h, 10 µM was determined as 83.2%.
In the case of `CC(Oc1cccc(Cl)c1)c1nc(-c2cccs2)no1` (stereo not shown) [CBK293984], the viability at 28.5 h, 10 µM amounted to 90.8%.
Then `CC(Oc1cccc(Br)c1)c1nc(-c2ccc(-n3cccc3)cc2)no1` (stereo not shown) [CBK293986], with 102%; and `O=C(CCCn1cc([N+](=O)[O-])cn1)Nc1cc(C(F)(F)F)ccc1Cl` [CBK293987], with 108%.
The same measure for `O=C(CSc1nnc(-c2ccco2)[nH]1)Nc1cccc(Cl)c1` [CBK293990]: 96.7%; for `N#Cc1c(NC(=O)CSc2nc(=O)cc(N)n2CCc2ccccc2)sc2c1CCCC2` [CBK293993]: 82.4%; for `CCOc1ccccc1NC(=O)c1cc2cccnc2n(Cc2ccc(Cl)cc2)c1=O` [CBK294395]: 109%.
Turning to `CC(=O)N1N=C(COc2ccc(C)cc2)OC1c1ccc(Br)cc1` (stereo not shown) [CBK294396], the viability at 28.5 h, 10 µM is 103%.
For the molecule `CC(=O)N1N=C(COc2ccc3c(c2)OCO3)OC1c1ccc(C)cc1` (stereo not shown) [CBK294397], the viability at 28.5 h, 10 µM was 83%.
In the case of `O=c1cc(CSc2nnc(-c3ccccc3)[nH]2)nc2[nH]cnn12` [CBK294398], the viability at 28.5 h, 10 µM was 96.1%.
The same measure for `O=C(Nc1nnc(SCc2cc(=O)n3nc[nH]c3n2)s1)c1ccc(F)cc1` [CBK294399]: 90.2%.
As for `Cc1ccc(CNC(=O)c2nnc(C(=O)Nc3cccc(Cl)c3)s2)o1` [CBK294404], the viability at 28.5 h, 10 µM was 95.2%.
Take `O=C(NCCN1CCOCC1)c1nnc(C(=O)Nc2cccc(Cl)c2)s1` [CBK294405]: the viability at 28.5 h, 10 µM is 93.9%.
Consider `O=C(Nc1cccc(Cl)c1)c1nnc(C(=O)NC2CCCCC2)s1` [CBK294406], for which the viability at 28.5 h, 10 µM turned out to be 92.6%.
Regarding `CCCCNC(=O)c1nnc(C(=O)Nc2cccc(Cl)c2)s1` [CBK294407], the viability at 28.5 h, 10 µM was 87.1%.
Then `Cc1c(C(=O)Nc2cccc(C(F)(F)F)c2)sc2nc(-c3ccccc3)cn12` [CBK294408], with 87.9%; and `CC(C)Cc1cnc2c(c1SCc1ccc(F)cc1)c(=O)n(C)c(=O)n2C` [CBK294409], with 95.6%.
Regarding `Cc1cc(=O)[nH]c(SCc2cc(=O)c3ccccc3[nH]2)n1` [CBK294410], the viability at 28.5 h, 10 µM came to 86.3%.
For the molecule `CN(C(=O)CSc1nc2ccccc2nc1Cc1ccc(Cl)cc1)C1CCCCC1` [CBK294411], the viability at 28.5 h, 10 µM amounted to 104%.
Take `CCOc1ccc(CN(Cc2cc(=O)n3nc(-c4ccccc4)sc3n2)CC(C)C)cc1` [CBK294412]: the viability at 28.5 h, 10 µM turned out to be 103%.
For the molecule `COCCn1c(SCc2ccc([N+](=O)[O-])cc2)nc2c([nH]c3ccccc32)c1=O` [CBK294415], the viability at 28.5 h, 10 µM stood at 90%.
Take `COc1ccc(C2C(C(=O)Nc3ccc(C)cc3)=C(C)Nc3ncnn32)cc1OC` (stereo not shown) [CBK294416]: the viability at 28.5 h, 10 µM worked out at 90.9%.
As for `Cn1c(NC(=O)c2ccccc2[N+](=O)[O-])cc(=O)n(C)c1=O` [CBK294417], the viability at 28.5 h, 10 µM was found to be 84%.
Consider `O=C1CCc2cc(S(=O)(=O)NC(c3ccccc3)c3ccccc3)cc3c2N1CCC3` [CBK294418], for which the viability at 28.5 h, 10 µM is 95.6%.
For `CC1C(=O)N2CCCc3cc(S(=O)(=O)NCc4ccc5c(c4)OCO5)cc1c32` (stereo not shown) [CBK294419], the viability at 28.5 h, 10 µM was determined as 107%.
As for `COc1cccc2sc(N(Cc3cccnc3)C(=O)c3ccc(S(=O)(=O)N(C)C)cc3)nc12` [CBK294420], the viability at 28.5 h, 10 µM worked out at 103%.
As for `O=C(CCS(=O)(=O)c1ccccc1)N(Cc1cccnc1)c1nc2c(F)cccc2s1` [CBK294422], the viability at 28.5 h, 10 µM amounted to 81.5%.
Regarding `COc1ccc2sc(N(Cc3cccnc3)C(=O)CCc3ccccc3)nc2c1` [CBK294423], the viability at 28.5 h, 10 µM worked out at 81.2%.
With `CSc1ccccc1NC(=O)c1cccn(Cc2ccc(C)cc2)c1=O` [CBK294426], the viability at 28.5 h, 10 µM stood at 87%.
On to `COc1ccc(-c2ccc(OCCNC(=O)c3cccc(F)c3)nn2)cc1` [CBK294428], for which the viability at 28.5 h, 10 µM came out at 87.1%.
Then `O=C(NCCOc1ccc(-c2ccc(F)cc2)nn1)c1ccc(Br)o1` [CBK294429], with 83.1%; and `COc1cccc(NC(=O)Cn2cc(OC)c(=O)cc2CN2CCOCC2)c1` [CBK294430], with 87.2%; and `CN1CC(=O)N(CC(=O)N2CC=C(c3ccccc3)CC2)c2ccccc2C1=O` [CBK294433], with 88%.
For the molecule `Cc1ccc(NC(=O)C2CC(=O)Nc3nc(SCc4ccccc4C)[nH]c(=O)c32)c(C)c1` (stereo not shown) [CBK294438], the viability at 28.5 h, 10 µM came out at 91%.
With `CCCCOc1ccccc1C1CC(=O)Nc2c(-c3ccccc3F)csc21` (stereo not shown) [CBK294439], the viability at 28.5 h, 10 µM was 81%.
Then `CC(C)CCNC(=O)c1cccc(-n2c(=S)[nH]c3cc(Cl)ccc3c2=O)c1` [CBK294444], with 107%; and `O=C(CCCn1nnc2ccccc2c1=O)NCc1cccc(Cl)c1` [CBK294446], with 82.8%.
Regarding `Cc1ccc(-n2ncc3c(Nc4c(C)n(C)n(-c5ccccc5)c4=O)ncnc32)c(C)c1` [CBK294449], the viability at 28.5 h, 10 µM stood at 82.6%.
The same measure for `O=C(c1ccc(S(=O)(=O)c2ccc(F)cc2)c([N+](=O)[O-])c1)N1CCCCCC1` [CBK294453]: 78.3%; for `O=C(CCNC(=O)c1ccc(Br)o1)NCc1ccccc1Cl` [CBK294454]: 81.5%.
Then `O=C(O)c1[nH]c2ccccc2c1/C=N/Cc1ccccc1Cl` [CBK294456], with 98.7%.
Regarding `COc1ccccc1CNC(=O)c1cc(-c2ccccc2)nc2ccccc12` [CBK294458], the viability at 28.5 h, 10 µM is 104%.
Turning to `CSc1cccc(NC(=S)N2CCC(N(C)C(C)C)CC2)c1` [CBK294463], the viability at 28.5 h, 10 µM was determined as 86.8%.
Regarding `O=C(NC1CCCC1)c1cc(=O)n(Cc2ccc(Cl)cc2)c2ccccc12` [CBK294464], the viability at 28.5 h, 10 µM stood at 104%.
In the case of `COc1ccc(-c2cc(C(=O)NC(C)c3ccccc3)c3cc(C(C)C)ccc3n2)cc1` (stereo not shown) [CBK294466], the viability at 28.5 h, 10 µM amounted to 101%.
Then `Cc1ccc(CNC(=O)C2CCN(S(=O)(=O)N3CCOCC3)CC2)cc1` [CBK294467], with 103%; and `CCC1CCC2(CC1)NC(=O)N(Cc1cc(-c3ccccc3)on1)C2=O` (stereo not shown) [CBK294977], with 90.1%; and `COc1ccc2cc(CNc3ccc(F)c([N+](=O)[O-])c3)c(Cl)nc2c1` [CBK295133], with 93.1%.
Take `CC(C)NC(=O)c1cccc2c1CCCN2Cc1nc2ccccc2o1` [CBK295135]: the viability at 28.5 h, 10 µM stood at 101%.
Regarding `COc1ccc2c(CC(=O)Nc3sccc3C(N)=O)coc2c1` [CBK295137], the viability at 28.5 h, 10 µM was 101%.
Then `COc1ccc(O)c(C(=O)c2cnn(-c3ccccn3)c2)c1` [CBK295141], with 97.9%; and `O=c1[nH]nc(SCc2csc(COc3ccc(Cl)cc3)n2)n1C1CC1` [CBK295146], with 87.9%.
`COc1ccc(NS(=O)(=O)c2cc(C(=O)O)cc(C)c2C)cc1OC` [CBK295148]: the viability at 28.5 h, 10 µM worked out at 82.9%.

(Values after PMC12040169 (PLOS Biology, 2025).)
